The subject of assay [1] is HTwist and MSP cells. The assay is described as follows: Boyden chamber migration assay, HTwist and MSP cells. The format is cell-based, human. The following applies: for effect on migration: 10 μM, to a similar extent as added BMP4 protein. As for the experimental part:
(§1) FIGS. 3A-3E. Autocrine Signaling controls migration and mammosphere formation.
FIGS. 10A-10E. […] (FIG. 10C) Mammosphere assay: HTwist cells were treated daily during mammosphere formation (5 days) with proteins as described in (B); *control vs. single treatment, p<1×10^−5, **single vs. double-treatment, p<0.01, n(mammospheres)/1000 cells, n=6, (FIG. 10D) Migration Assay: HTwist and MSP cells were seeded into Boyden Chambers in the presence of TGF-beta Receptor I inhibitors A83-01 and SB431542 (SB43, both at 10 μM). (FIG. 10E) Mammosphere Assay: HTwist and MSP were treated daily during mammosphere formation (5 days) with BMP4 (0.5 μg/ml), SB431542 (10 μM) or a combination of both, n(mammospheres)/1000 cells, n=6.
Migration and invasion assays. For migration assays, 2×10^4 cells were seeded into 24-well cell culture inserts with 8-μm pores (Boyden Chambers, BD Falcon). For invasion assays, matrigel-coated inserts (BD Falcon) were used. After 12-48 hr, the cells on the upper surface of the filters were removed with a cotton swab. For visualization, cells on lower filter surfaces were fixed and stained with a Diff-Quick staining kit (Dade Behring).

For assay [2], the system named is HTwist and MSP cells. The assay is described as follows: Mammosphere assay, HTwist and MSP cells. The assay is classed as cell-based, human. As to conditions: 10 μM; to a similar extent as added BMP4 protein. As for the experimental part:
FIGS. 10A-10E. […] (FIG. 10E) Mammosphere Assay: HTwist and MSP were treated daily during mammosphere formation (5 days) with BMP4 (0.5 μg/ml), SB431542 (10 μM) or a combination of both, n(mammospheres)/1000 cells, n=6.
(§2) Mammosphere and tumorsphere assay. Assays were performed as previously described with modifications (Dontu et al., 2003): 1000 cells/well were seeded in 96-well ultra-low adhesion plates (Corning) in MEGM medium containing 1.3% methylcellulose (Stem Cell Technologies) supplemented with 20 ng/ml EGF, 10 ng/ml bFGF (both Sigma) and B27 (Gibco). Primary spheres were dissociated by trypsinization and replated for secondary sphere formation after a period of 5-7 days.

Assay [3] concerns the target GSK3. As to conditions: ATP-competitive manner; cited from earlier work.
The test system of assay [4] is 26 other kinases. As to conditions: cited from earlier work.
Assay [5] deals with Cdk-1/cyclin B. The following applies: at >100 μM; cited from earlier work.
Assay [6] has as its system CK-II. The following applies: at >100 μM; cited from earlier work.
The subject of assay [7] is PKA. As to conditions: at >100 μM; cited from earlier work.
Assay [8] deals with PKC. The following applies: at >100 μM; cited from earlier work.
The test system of assay [9] is HMLE^24+ cells. The assay is described as follows: Boyden chamber migration assay, HMLE^24+ cells. The assay is classed as cell-based, human. The following applies: 0.5 μg/ml in growth medium. The protocol: as §1
FIGS. 5A-5H. Concomitant stimulation of Wnt and TGF-beta pathways allows HMLE^24+ cells to enter into a mesenchymal and SC-like state. (FIG. 5A) RT-PCR: N-Cadherin, Zeb1 and Zeb2, L32 was loading control, n=3. Prior RNA isolation, HMLE^24+-shGFP or -shSFRP1 (stable knockdown of SFRP1, FIG. 12A) cells were treated for 3 days with daily doses of indicated factors: anti-DKK1 antibody (10 μg/ml), anti-E-Cadherin antibody (1 μg/ml), TGF-beta 1 (5 ng/ml), Wnt5a (250 ng/ml), (FIG. 5B) Brightfield microscopy: images of control, TGF-beta- and iEMT-cocktail treated HMLE^24+ cells after 14 days of treatment as indicated (see also FIG. 12D). (FIG. 5C) RT-PCR: Zeb1, Zeb2, E-Cadherin and N-Cadherin, L32 was loading control, n=3. After 14 day treatment, cells were expanded in absence of further stimulation for 4 passages. Shown are PBS-treated control HMLE^24+-shGFP and HMLE^24+-shSFRP1 cells, two HMLE^24+-shGFP cultures treated with TGF-beta 1 (TGF-β-a and -b), two HMLE^24+-shSFRP1 cultures treated with the iEMT-cocktail (iEMT-a and -b). (FIG. 5D) Immunoblot: EMT markers and associated autocrine pathways, cells generated as described in (C). (FIG. 5E) Migration (Boyden Chamber Assay) and Mammosphere Assay: cells generated as indicated in (C), *control vs. TGF-beta treatment, p<1×10^−4, **control vs. iEMT-treatment, p<1×10^−9, n(migration)=3, n(mammospheres)/1000 cells, n=7. (FIG. 5F) Flow cytometry: CD44 and CD24 cell-surface marker expression in control, TGF-beta-a and iEMT-a cells generated as described in (C). (FIG. 5G) Lung metastasis: cells expanded for 8 passages after cessation of treatment as described in (C) were transformed with RAS; 1.0×10^5 cells were injected into the mammary fat pads of mice; GFP-labeled metastases on the surface of the lungs were quantified; *control vs. all other groups, p<0.05, n=5 mice/group. […]

The subject of assay [10] is MSP cells. Nature of the assay: Mammosphere assay, MSP cells. The format is cell-based, human. The following applies: added daily for 5 days (FIG. 3D). As for the experimental part: as §1, §2

For `Cc1cccc(-c2nn(C(=S)Nc3ccccc3)cc2-c2ccnc3ccccc23)n1` [A83-01, reference compound], the effect on migration entry in assay [1] is given as “attenuated”. Further, the “effect on mammosphere formation” value in assay [2] is reported as “attenuated”.
For orientation: Ki means the dissociation constant of the complex between target and ligand, obtained from inhibition or displacement. In the case of `COc1ccc(CNC(=O)Nc2ncc([N+](=O)[O-])s2)cc1` [AR-A014418, N-(4-Methoxybenzyl)-N′-(5-nitro-1,3-thiazol-2-yl)urea], the Ki in assay [3] is […]. Besides, in assay [4], the “inhibition of 26 other kinases” value is reported as “does not significantly inhibit”.
For the molecule `NC(=O)c1ccc(-c2nc(-c3ccc4c(c3)OCO4)c(-c3ccccn3)[nH]2)cc1` [SB431542, reference compound], in assay [1], the effect on migration entry is on record as “attenuated”. Further, in assay [2], the “effect on mammosphere formation” value was “attenuated”.
With `Cn1sc(=O)n(Cc2ccccc2)c1=O` [TDZD-8, 4-Benzyl-2-methyl-1,2,4-thiadiazolidine-3,5-dione], the “inhibition of Cdk-1/cyclin B” value in assay [5] is listed as “does not inhibit”. For the same molecule, the “inhibition of CK-II” value in [6] is listed as “does not inhibit”. For the same molecule, in assay [7], the “inhibition of PKA” value is reported as “does not inhibit”. In addition, the “inhibition of PKC” value in [8] is given as “does not inhibit”.

B1: DKK1: Recombinant human DKK1 protein (R&D Systems), secreted antagonist of canonical Wnt pathway (protein, UniProt O94907 32-266, looked up)
Dickkopf-related protein 1: TLNSVLNSNAIKNLPPPLGGAAGHPGSAVSAAPGILYPGGNKYQTIDNYQPYPCAEDEECGTDEYCASPTRGGDAGVQICLACRKRRKRCMRHAMCCPGNYCKNGICVSSDQNHFRGEIEETITESFGNDHSTLDGYSRRTTLSSKMYHTKGQEGSVCLRSSDCASGLCCARHFWSKICKPVLKEGQVCTKHRRKGSHGLEIFQRCYCGEGLSCRIQKDHHQASNSSRLHTCQRH
For B1, in assay [9], the “motility of HMLE^24+ cells upon addition of protein” value is given as “not further reduced”. In addition, the reduction of migration in assay [1] (at the highest concentration) is 10 fold. For the same molecule, the “reduction of primary mammosphere number” value in assay [10] is 20%.

(Values after patent US9308238B2, “Compositions and methods for modulating EMT and uses thereof” (Whitehead Institute for Biomedical Research, priority 2010, dated 2016).)
